Reference: PubChem BioAssay AID1259352

System: C. elegans N2 L1 growth, INVAPP movement imaging, 5 d
Assay: C. elegans larval growth inhibition, dose response, whole organism, N2 L1 worms, INVAPP movement imaging (AID 1259352)

Row | Structure (SMILES) | EC50 [µM]
1 | COc1ccccc1CNc1nc(NCCOc2ccccc2Cl)c2sccc2n1 | 7
2 | CNc1nc(NCCOc2ccccc2)c2sccc2n1 | 82
3 | CNc1nc(NCCOc2ccccc2Cl)c2sccc2n1 | 11
4 | COCCNc1nc(NCCOc2ccccc2Cl)c2sccc2n1 | 87
